# Legend:
# [1] = system: Mus musculus; experiment: Tested for antiinflammatory activity on mouse type II collagen arthritis as Paw swelling of all animals in each group on day 30 at intraperitoneal dose of 3 mg/kg; format: functional
# [2] = system: Mus musculus; experiment: Tested for antiinflammatory activity on mouse type II collagen arthritis as Paw swelling of all animals in each group on day 23 at intraperitoneal dose of 3 mg/kg; format: functional
# [3] = system: Mus musculus; experiment: Incidence of disease (mouse type II collagen) was scored as the percentage of animals within each experimental group that exhibited joint or limb inflammation on day 37 at intraperitoneal dose of 12 mg/kg; format: functional
# [4] = system: Mus musculus; experiment: Tested for antiinflammatory activity on mouse type II collagen arthritis as Paw swelling of all animals in each group on day 30 at intraperitoneal dose of 6 mg/kg; format: functional
# [5] = Concentration required to inhibit the growth of chang liver cells.; format: functional; settings: Homo sapiens
# [6] = system: Mus musculus; experiment: Incidence of disease (mouse type II collagen) was scored as the percentage of animals within each experimental group that exhibited joint or limb inflammation on day 23 at intraperitoneal dose of 3 mg/kg; format: functional
# [7] = system: L1210; experiment: Concentration required to inhibit the growth of L1210 cells.; format: functional, cell-based; settings: Mus musculus
# [8] = system: Mus musculus; experiment: Tested for antiinflammatory activity on mouse type II collagen arthritis as Paw swelling of all animals in each group on day 23 at intraperitoneal dose of 6 mg/kg; format: functional
# [9] = system: Mus musculus; experiment: Incidence of disease (mouse type II collagen) was scored as the percentage of animals within each experimental group that exhibited joint or limb inflammation on day 23 at intraperitoneal dose of 6 mg/kg; format: functional
# [10] = system: Mus musculus; experiment: Tested for antiinflammatory activity on mouse type II collagen arthritis as Paw swelling of all animals in each group on day 44 at intraperitoneal dose of 3 mg/kg; format: functional
# [11] = system: Mus musculus; experiment: Incidence of disease (mouse type II collagen) was scored as the percentage of animals within each experimental group that exhibited joint or limb inflammation on day 44 at intraperitoneal dose of 12 mg/kg; format: functional
# [12] = system: Mus musculus; experiment: Incidence of disease (mouse type II collagen) was scored as the percentage of animals within each experimental group that exhibited joint or limb inflammation on day 37 at intraperitoneal dose of 3 mg/kg; format: functional
# [13] = system: Mus musculus; experiment: Tested for antiinflammatory activity on mouse type II collagen arthritis as Paw swelling of all animals in each group on day 37 at intraperitoneal dose of 12 mg/kg; format: functional
# [14] = system: Mus musculus; experiment: Tested for antiinflammatory activity on mouse type II collagen arthritis as Paw swelling of all animals in each group on day 37 at intraperitoneal dose of 6 mg/kg; format: functional
# [15] = system: Mus musculus; experiment: Incidence of disease (mouse type II collagen) was scored as the percentage of animals within each experimental group that exhibited joint or limb inflammation on day 30 at intraperitoneal dose of 3 mg/kg; format: functional
# [16] = system: Mus musculus; experiment: Incidence of disease (mouse type II collagen) was scored as the percentage of animals within each experimental group that exhibited joint or limb inflammation on day 23 at intraperitoneal dose of 12 mg/kg; format: functional
# [17] = system: Mus musculus; experiment: Incidence of disease (mouse type II collagen) was scored as the percentage of animals within each experimental group that exhibited joint or limb inflammation on day 30 at intraperitoneal dose of 6 mg/kg; format: functional
# [18] = system: Mus musculus; experiment: Tested for antiinflammatory activity on mouse type II collagen arthritis as Paw swelling of all animals in each group on day 23 at intraperitoneal dose of 12 mg/kg; format: functional
# [19] = system: Mus musculus; experiment: Incidence of disease (mouse type II collagen) was scored as the percentage of animals within each experimental group that exhibited joint or limb inflammation on day 37 at intraperitoneal dose of 6 mg/kg; format: functional
# [20] = system: Mus musculus; experiment: Incidence of disease (mouse type II collagen) was scored as the percentage of animals within each experimental group that exhibited joint or limb inflammation on day 44 at intraperitoneal dose of 6 mg/kg; format: functional
# [21] = system: Mus musculus; experiment: Tested for antiinflammatory activity on mouse type II collagen arthritis as Paw swelling of all animals in each group on day 37 at intraperitoneal dose of 3 mg/kg; format: functional
# [22] = system: Mus musculus; experiment: Tested for antiinflammatory activity on mouse type II collagen arthritis as Paw swelling of all animals in each group on day 44 at intraperitoneal dose of 12 mg/kg; format: functional
# [23] = system: Mus musculus; experiment: Tested for antiinflammatory activity on mouse type II collagen arthritis as Paw swelling of all animals in each group on day 30 at intraperitoneal dose of 12 mg/kg; format: functional
# [24] = system: Mus musculus; experiment: Incidence of disease (mouse type II collagen) was scored as the percentage of animals within each experimental group that exhibited joint or limb inflammation on day 30 at intraperitoneal dose of 12 mg/kg; format: functional
# [25] = system: Mus musculus; experiment: Tested for antiinflammatory activity on mouse type II collagen arthritis as Paw swelling of all animals in each group on day 44 at intraperitoneal dose of 6 mg/kg; format: functional
# [26] = system: Mus musculus; experiment: Incidence of disease (mouse type II collagen) was scored as the percentage of animals within each experimental group that exhibited joint or limb inflammation on day 44 at intraperitoneal dose of 3 mg/kg; format: functional
# [27] = system: Mus musculus; experiment: Tested for antiinflammatory activity on mouse type II collagen arthritis as Paw swelling of all animals in each group on day 30 at intraperitoneal dose of 1.5 mg/kg; format: functional
# [28] = system: Mus musculus; experiment: Incidence of disease (mouse type II collagen) was scored as the percentage of animals within each experimental group that exhibited joint or limb inflammation on day 30 at intraperitoneal dose of 1.5 mg/kg; format: functional
# [29] = system: Mus musculus; experiment: Tested for antiinflammatory activity on mouse type II collagen arthritis as Paw swelling of all animals in each group on day 44 at intraperitoneal dose of 1.5 mg/kg; format: functional
# [30] = system: Mus musculus; experiment: Incidence of disease (mouse type II collagen) was scored as the percentage of animals within each experimental group that exhibited joint or limb inflammation on day 44 at intraperitoneal dose of 1.5 mg/kg; format: functional
# [31] = system: Mus musculus; experiment: Incidence of disease (mouse type II collagen) was scored as the percentage of animals within each experimental group that exhibited joint or limb inflammation on day 23 at intraperitoneal dose of 1.5 mg/kg; format: functional
# [32] = system: Mus musculus; experiment: Incidence of disease (mouse type II collagen) was scored as the percentage of animals within each experimental group that exhibited joint or limb inflammation on day 37 at intraperitoneal dose of 1.5 mg/kg; format: functional
# [33] = system: Mus musculus; experiment: Tested for antiinflammatory activity on mouse type II collagen arthritis as Paw swelling of all animals in each group on day 37 at intraperitoneal dose of 1.5 mg/kg; format: functional
# [34] = system: Mus musculus; experiment: Tested for antiinflammatory activity on mouse type II collagen arthritis as Paw swelling of all animals in each group on day 23 at intraperitoneal dose of 1.5 mg/kg; format: functional
Compound,Paw swelling [1],Paw swelling [2],Animals [3],Paw swelling [4],IC50 [5],Animals [6],IC50 [7],Paw swelling [8],Animals [9],Paw swelling [10],Animals [11],Animals [12],Paw swelling [13],Paw swelling [14],Animals [15],Animals [16],Animals [17],Animals [19],Animals [20],Paw swelling [25],other results
C=CCC(Cc1cnc2nc(N)nc(N)c2c1C)c1ccc(C(=O)NC(CCC(=O)O)C(=O)O)cc1 (stereo unspecified),2.24 mm,2.2 mm,75%,2.21 mm,11 nM,25%,9 nM,2.15 mm,0%,2.99 mm,100%,88%,2.69 mm,2.66 mm,38%,50%,25%,62%,100%,3.01 mm,Paw swelling [18]: 2.25 mm; Paw swelling [21]: 2.99 mm; Paw swelling [22]: 3.15 mm; Paw swelling [23]: 2.24 mm; Animals [24]: 38%; Animals [26]: 88%
Cc1c(CCc2ccc(C(=O)NC(CCC(=O)O)C(=O)O)cn2)cnc2nc(N)nc(N)c12 (stereo unspecified),,,62%,2.22 mm,4110 nM,,629 nM,2.16 mm,0%,,75%,,2.69 mm,2.59 mm,,0%,25%,38%,75%,2.55 mm,Paw swelling [18]: 2.16 mm; Paw swelling [22]: 2.66 mm; Paw swelling [23]: 2.33 mm; Animals [24]: 38%
CCCN(Cc1cnc2nc(N)nc(N)c2c1C)c1ccc(C(=O)NC(CCC(=O)O)C(=O)O)cc1 (stereo unspecified),2.13 mm,2.12 mm,,2.19 mm,14 nM,0%,11 nM,2.16 mm,0%,2.16 mm,,0%,,2.2 mm,0%,,12%,12%,25%,2.24 mm,Paw swelling [27]: 2.15 mm; Animals [28]: 0%; Paw swelling [29]: 2.22 mm; Animals [30]: 25%; Animals [31]: 0%; Animals [32]: 12%; Paw swelling [33]: 2.21 mm; Paw swelling [34]: 2.15 mm; Paw swelling [21]: 2.17 mm; Animals [26]: 0%
CCC(Cc1cnc2nc(N)nc(N)c2c1)c1ccc(C(=O)NC(CCC(=O)O)C(=O)O)cc1 (stereo unspecified),2.43 mm,2.26 mm,,2.57 mm,12 nM,25%,75 nM,2.2 mm,12%,2.7 mm,,100%,,2.8 mm,88%,,100%,88%,100%,2.76 mm,Paw swelling [27]: 2.31 mm; Animals [28]: 62%; Paw swelling [29]: 2.59 mm; Animals [30]: 88%; Animals [31]: 25%; Animals [32]: 88%; Paw swelling [33]: 2.48 mm; Paw swelling [34]: 2.17 mm; Paw swelling [21]: 2.67 mm; Animals [26]: 100%
Nc1nc(N)c2cc(CCc3ccc(C(=O)NC(CCC(=O)O)C(=O)O)cn3)cnc2n1 (stereo unspecified),,,88%,2.39 mm,,,,2.12 mm,0%,,88%,,2.5 mm,2.61 mm,,0%,88%,88%,88%,2.86 mm,Paw swelling [18]: 2.1 mm; Paw swelling [22]: 2.67 mm; Paw swelling [23]: 2.28 mm; Animals [24]: 62%
C#CCN(Cc1cnc2nc(N)nc(N)c2c1CC)c1ccc(C(=O)NC(CCC(=O)O)C(=O)O)cc1 (stereo unspecified),2.16 mm,2.13 mm,25%,2.16 mm,,0%,,2.17 mm,0%,2.39 mm,25%,25%,2.23 mm,2.21 mm,12%,12%,12%,25%,25%,2.2 mm,Paw swelling [18]: 2.22 mm; Paw swelling [21]: 2.24 mm; Paw swelling [22]: 2.2 mm; Paw swelling [23]: 2.2 mm; Animals [24]: 12%; Animals [26]: 25%
